From publication PMC9440176, “Novel benzylidene benzofuranone analogues as potential anticancer agents: design, synthesis and in vitro evaluation based on CDK2 inhibition assays” (3 Biotech, 2022)

How the values were obtained:
[1] = system: Cyclin A gene expression in HCT 116 cell lines; test: Semi-quantitative RT-PCR gene expression of Cyclin A; format: cell-based, Human; details: for CyclinA expression profile (in words): HCT 116; for Relative gene expression of Cyclin A: control 1.00
Experimental: HCT-116 cells were trypsinized and added to 1 ml TRIzol and vortexed. Samples were then allowed to stand for 5 min at room temperature. 0.2 ml of chloroform per 1 ml of TRIzol was added. The tube was later stoppered and shaken vigorously for 15 s and was allowed to stand at room temperature for 5 min. The resulting mixture was then centrifuged at 10,000×rpm for 15 min at […]. The upper aqueous phase was transferred to another clean tube followed by the addition of 0.5 ml of isopropanol per 1 ml of TRIzol. The contents were mixed gently by inverting the sample 5 times and incubated at room temperature for 5 min. Further, the tubes were centrifuged at 10,000×rpm for the next 10 min at […]. Later, the supernatant was discarded and the RNA pellet was washed by adding 1 ml of 70% ethanol. Further, the contents were mixed gently by inverting the sample for few times. It was again centrifuged for 5 min at 14,000×rpm at […]. In the later step, the supernatant was discarded by inverting the tube on a clean tissue paper. Later, the pellet was dried by incubating in a […] for 5 min at 55 °C. The pellet was then resuspended in 25 µL of DEPC (Diethyl pyro carbonate) treated water.
A semi-quantitative reverse transcriptase polymerase chain reaction (RT-PCR) was carried out using Techno Prime system to determine the levels of β-actin and CDK-2 and CyclinA mRNA expression. The cDNA was synthesized from 2 µg of RNA using the Verso cDNA synthesis kit (Thermo Fischer Scientific) with oligo dT (deoxy thymine) primer according to the manufacturer’s instructions. The reaction volume was set to 20 μL and the cDNA synthesis was performed at 42 °C for 60 min followed by RT inactivation at 85 °C for 5 min (Murakami [1996]).
The PCR mixture (final volume of 20 µL) contains 1 µL of cDNA, 10 µL of Red Taq Master Mix 2× (Ampliqon) and 1 µM of each complementary primer specific for CDK2 and CyclinA and β-actin (internal control) sequence. The samples are denatured at 95 °C for 5 min and amplified using 35 cycles of 95 °C for 30 s then again at 55 °C for 30 s and 72 °C for 1 min for β-actin; the […] annealing was finally set to 56 °C followed by the final elongation at 72 °C for 10 min. […] Ten microliters of the final amplification product are run on a 2% ethidium-stained agarose gel and photographed. Quantification of the results could be accomplished by measuring the optical density of the bands, using the computerized imaging program Image J. The values were normalized to β-actin intensity levels (Bookout and Mangelsdorf [2003]).

MCF-7 = test: MTT cytotoxicity assay on MCF-7; format: cell-based; details: 24 h, read-out: Inhibition of cell proliferation, IC50, MCF-7
Experimental: The monolayer cell culture was trypsinized and the cell count was adjusted to 5.0 × 10^5 cells/ml using respective media containing 10% FBS. To each well of the 96-well microtiter plate, 100 µL of the diluted cell suspension (50,000cells/well) was added. After 24 h, when a partial monolayer was formed, the supernatant was flicked off, the monolayer was then washed once again with the medium and 100 µL of different test concentrations of test drugs were added on to the partial monolayer in microtiter plates. The plates were then incubated at 37 °C for 24 h in 5% CO2 atmosphere. After incubation, the test solutions in the wells were discarded and 100 µL of MTT (5 mg/10 ml of MTT in PBS) was added to each well. The plates were then incubated for 4 h at 37 °C in 5% CO2 atmosphere. The supernatant was then removed and 100 µL of DMSO was added and the plates were gently shaken to solubilize the formed formazan. The absorbance was measured using a microtiter plate reader at a wavelength of 590 nm. The percentage growth inhibition was thus calculated using the following formula and the concentration of the test drug required to inhibit the cell growth by 50% (IC50) values is generated from the dose–response curves for each one of the cell lines (Meerloo et al. [2011]).
The test compounds were screened for their in vitro cytotoxicity by MTT assay against two cancer cell lines, namely MCF-7, HCT-116 and normal epithelial kidney cells (Vero). Doxorubicin was used as a reference standard.

HCT 116 cell lines = test: Cell cycle analysis (PI, FACS); format: cell-based, Human; details: 24 h
Experimental: The cell cycle analysis was followed where 1 × 10^6 cells were seeded and cultured for 24 h in a 6-well plate containing 2 ml of the media. Cells were then treated with desired concentrations of the given samples that were prepared in media and further incubated for another 24 h. Cells were then harvested and centrifuged at 2000 rpm for 5 min at room temperature and the supernatant was discarded carefully retaining the cell pellet. Cell pellet was then washed by resuspending in 2 ml of 1XPBS. The washing was repeated another time under the same conditions. Further, the supernatant was discarded retaining the pellet. Cells were then fixed by resuspending in 300 µL of Sheath fluid followed by the addition of 1 ml of chilled 70% ethanol drop by drop gently with continuous shaking and one more mL of the same at once. The cells were then stored at 4 °C overnight. Post fixing, the cells were centrifuged at 2000 rpm for 5 min washed twice with 2 ml of cold 1XPBS and suspended in 450 µL of sheath fluid containing 0.05 mg/ml PI (Propidium iodide), 0.05 mg/ml RNase A and incubated for 15 min in the dark (Kasibhatla et al. [2006]).The percentage of cells in various stages of cell cycle both in the treated as well as un-treated populations was determined using FACS Caliber (BD Biosciences, San Jose, CA).

COc1ccc(/C=C2\Oc3c(c(OC)cc(OC)c3C3=CCN(C(C)C)CC3)C2=O)cc1OC [NISOA4]
Band intensity Of PCR Amplicon Of genes, Cyclin A ([1]; 12.5 μM): 16,245.903
Normalized (Cyclin A to β-actin) ([1]; 12.5 μM): 0.64
CyclinA expression profile (in words) ([1]; 12.5 μM): very little or no reduction
Relative gene expression of Cyclin A ([1]; 12.5 μM): 1.00
Band intensity Of PCR Amplicon Of genes, Cyclin A ([1]; 25 μM): 10,798.368
Normalized (Cyclin A to β-actin) ([1]; 25 μM): 0.43
CyclinA expression profile (in words) ([1]; 25 μM): clear decrease
Relative gene expression of Cyclin A ([1]; 25 μM): 0.67
IC50 (MCF-7): 35.6 µM
percentage cell population GO/G1 phase (HCT 116 cell lines; high concentration (25)): 57.97%
percentage cell population G2/M phase (HCT 116 cell lines; low concentration (12.5)): 17.30%
percentage cell population GO/G1 phase (HCT 116 cell lines; low concentration (12.5)): 70.84%
percentage cell population S phase (HCT 116 cell lines; low concentration (12.5)): 10.61%
